{
  "source": "patent US6677350B1",
  "about": "“Beta-fluoroethyl thiourea compounds and use” (priority 1999, dated 2004)",
  "system": "M. tuberculosis H37Rv (ATCC 27294)",
  "experiment": "In vitro anti-tuberculosis screening, BACTEC 460 radiometric system, percent inhibition of growth",
  "format": "cell-based, Mycobacterium tuberculosis",
  "details": "Mtb H37Rv; for Activity % Inhibition at 12.5 μg/mL (flavones) / inhibition at 12.5 µg/mL / Activity % Inhibition at 12.5 μg/mL (biflavonoids) / Activity % inhibition at 12.5 μg/mL (chalcones) / Activity % Inhibition at 12.5 μg/mL (flavanones) / Activity % inhibition at 12.5 μg/mL (chalcone-like compounds): BACTEC 12B medium; for inhibition at 12.5 µg/mL: Mycobacterium tuberculosis, read-out: Activity % Inhibition at 12.5 μg/mL (biflavonoids); for Activity % Inhibition at 12.5 μg/mL (flavones) / inhibition at 12.5 µg/mL / anti-TB activity in words / Activity % Inhibition at 12.5 μg/mL (biflavonoids) / Activity % inhibition at 12.5 μg/mL (chalcones) / Activity % Inhibition at 12.5 μg/mL (flavanones) / Activity % inhibition at 12.5 μg/mL (chalcone-like compounds): 12.5 μg/mL; for inhibition of the growth of Mtb: drug concentration 12.5 μg/mL",
  "note": "Several values for one entry are separate records, joined by “and”; a condition that tells them apart may be missing. Identical values can stand only once.",
  "data": [
    {"compound": "COc1ccc(-c2oc3cc(OC)cc(OC)c3c(=O)c2Br)cc1", "note": "[Compound 131]", "values": [
      {"measurement": "Activity % Inhibition at 12.5 μg/mL (flavones)", "result": 0, "unit": "%"}
    ]},
    {"compound": "O=c1cc(-c2ccc(Oc3c(O)cc4oc(-c5ccc(O)cc5)cc(=O)c4c3O)cc2)oc2cc(O)cc(O)c12", "note": "[Compound 167, Hinokiflavone]", "values": [
      {"measurement": "inhibition at 12.5 µg/mL", "result": 0, "unit": "%"}
    ]},
    {"compound": "O=c1cc(-c2ccccc2)oc2ccc(F)cc12", "note": "[Compound 112]", "values": [
      {"measurement": "anti-TB activity in words", "result": "weakly active or inactive"},
      {"measurement": "Activity % Inhibition at 12.5 μg/mL (flavones)", "result": 7, "unit": "%"}
    ]},
    {"compound": "O=c1cc(-c2ccccc2)oc2ccc(-c3ccccc3-c3cc(=O)c4ccccc4o3)cc12", "note": "[Compound 156, 6-2′′′′-Biflavone]", "values": [
      {"measurement": "Activity % Inhibition at 12.5 μg/mL (biflavonoids)", "result": 9, "unit": "%"}
    ]},
    {"compound": "O=C(C=Cc1ccccc1)c1ccc(Cl)cc1O", "note": "[Compound 25]", "values": [
      {"measurement": "Activity % inhibition at 12.5 μg/mL (chalcones)", "result": 89, "unit": "%"},
      {"measurement": "inhibition of the growth of Mtb", "result": 89, "unit": "%"}
    ]},
    {"compound": "COc1ccc(-c2cc(=O)c3ccccc3o2)cc1", "note": "[Compound 93]", "values": [
      {"measurement": "Activity % Inhibition at 12.5 μg/mL (flavones)", "result": 29, "unit": "%"}
    ]},
    {"compound": "O=C(/C=C/c1ccccc1)c1cc(I)ccc1O", "note": "[Compound 42]", "values": [
      {"measurement": "Activity % inhibition at 12.5 μg/mL (chalcones)", "result": 51, "unit": "%"},
      {"measurement": "inhibition of the growth of Mtb", "result": "51% and 52%"}
    ]},
    {"compound": "CC(=O)Oc1ccc([C@@H]2CC(=O)c3c(cc(OC(C)=O)c(-c4c(OC(C)=O)cc5c(c4OC(C)=O)C(=O)C[C@@H](c4ccc(OC(C)=O)cc4)O5)c3OC(C)=O)O2)cc1", "note": "[Compound 174, Succedaneaflavanone hexaacetate]", "values": [
      {"measurement": "Activity % Inhibition at 12.5 μg/mL (biflavonoids)", "result": 0, "unit": "%"}
    ]},
    {"compound": "COc1ccc(C2CC(=O)c3cc(C(=O)O)ccc3O2)cc1", "note": "(stereo not drawn) [Compound 145]", "values": [
      {"measurement": "Activity % Inhibition at 12.5 μg/mL (flavanones)", "result": 0, "unit": "%"}
    ]},
    {"compound": "O=c1cc(-c2ccccc2)oc2cc(Cl)ccc12", "note": "[Compound 122]", "values": [
      {"measurement": "anti-TB activity in words", "result": "weakly active or inactive"},
      {"measurement": "Activity % Inhibition at 12.5 μg/mL (flavones)", "result": 0, "unit": "%"}
    ]},
    {"compound": "COc1ccc(-c2cc(=O)c3ccc(I)cc3o2)cc1", "note": "[Compound 128]", "values": [
      {"measurement": "Activity % Inhibition at 12.5 μg/mL (flavones)", "result": 0, "unit": "%"}
    ]},
    {"compound": "COc1ccc(-c2oc3ccc(F)cc3c(=O)c2O)cc1", "note": "[Compound 94]", "values": [
      {"measurement": "Activity % Inhibition at 12.5 μg/mL (flavones)", "result": 29, "unit": "%"}
    ]},
    {"compound": "COc1ccc2c(=O)cc(-c3ccccc3)oc2c1", "note": "[Compound 117]", "values": [
      {"measurement": "Activity % Inhibition at 12.5 μg/mL (flavones)", "result": 0, "unit": "%"}
    ]},
    {"compound": "COc1ccccc1C=CC(=O)c1ccccc1O", "note": "[Compound 8]", "values": [
      {"measurement": "Activity % inhibition at 12.5 μg/mL (chalcones)", "result": 39, "unit": "%"}
    ]},
    {"compound": "3′′′-Nitro-C3-O-C4′′′′--Biflavone [Compound 154]", "values": [
      {"measurement": "Activity % Inhibition at 12.5 μg/mL (biflavonoids)", "result": 61, "unit": "%"}
    ]},
    {"compound": "COc1ccc(/C=C/C(=O)c2ccccn2)cc1", "note": "[Compound 76]", "values": [
      {"measurement": "Activity % inhibition at 12.5 μg/mL (chalcone-like compounds)", "result": 0, "unit": "%"}
    ]},
    {"compound": "COc1ccc(-c2cc(=O)c3c(OC)cc(OC)cc3o2)cc1", "note": "[Compound 109]", "values": [
      {"measurement": "Activity % Inhibition at 12.5 μg/mL (flavones)", "result": 12, "unit": "%"}
    ]},
    {"compound": "COc1ccc(C=CC(=O)c2ccc(Br)cc2O)cc1", "note": "[Compound 36]", "values": [
      {"measurement": "Activity % inhibition at 12.5 μg/mL (chalcones)", "result": 25, "unit": "%"},
      {"measurement": "inhibition of the growth of Mtb", "result": 25, "unit": "%"}
    ]},
    {"compound": "O=c1cc(-c2cccc(I)c2)oc2ccccc12", "note": "[Compound 101]", "values": [
      {"measurement": "anti-TB activity in words", "result": "weakly active or inactive"},
      {"measurement": "Activity % Inhibition at 12.5 μg/mL (flavones)", "result": 22, "unit": "%"}
    ]},
    {"compound": "COc1ccc(-c2oc3cc(F)ccc3c(=O)c2OC(C)=O)cc1", "note": "[Compound 86]", "values": [
      {"measurement": "Activity % Inhibition at 12.5 μg/mL (flavones)", "result": 50, "unit": "%"}
    ]},
    {"compound": "CN(C)c1ccc(/C=C/C(=O)c2ccccn2)cc1", "note": "[Compound 62]", "values": [
      {"measurement": "Activity % inhibition at 12.5 μg/mL (chalcone-like compounds)", "result": 16, "unit": "%"}
    ]},
    {"compound": "COc1ccc(C2CC(=O)c3c(cc(OC)c(-c4c(OC)cc5c(c4OC)C(=O)CC(c4ccc(OC)cc4)O5)c3OC)O2)cc1", "note": "(stereo not drawn) [Compound 157, 6-6′′-Binaringenin hexamethylether]", "values": [
      {"measurement": "anti-TB activity in words", "result": "inactive"},
      {"measurement": "Activity % Inhibition at 12.5 μg/mL (biflavonoids)", "result": 2, "unit": "%"}
    ]},
    {"compound": "CC(=O)Oc1ccc([C@@H]2CC(=O)c3c(cc(OC(C)=O)c(-c4c(OC(C)=O)cc(OC(C)=O)c5c4O[C@H](c4ccc(OC(C)=O)cc4)CC5=O)c3OC(C)=O)O2)cc1", "note": "[Compound 173, Rhusflavanone hexaacetate]", "values": [
      {"measurement": "Activity % Inhibition at 12.5 μg/mL (biflavonoids)", "result": 0, "unit": "%"}
    ]},
    {"compound": "COc1cc(OC)c2c(=O)cc(-c3ccc(OC)c(I)c3)oc2c1", "note": "[Compound 126]", "values": [
      {"measurement": "Activity % Inhibition at 12.5 μg/mL (flavones)", "result": 0, "unit": "%"}
    ]},
    {"compound": "O=C1c2ccccc2OC(c2cccc(Cl)c2)C1O", "note": "(stereo not drawn) [Compound 135]", "values": [
      {"measurement": "Activity % Inhibition at 12.5 μg/mL (flavanones)", "result": 63, "unit": "%"}
    ]},
    {"compound": "CCOc1cc(O)c(C(=O)C=Cc2ccccc2)c(OCC)c1", "note": "[Compound 14]", "values": [
      {"measurement": "Activity % inhibition at 12.5 μg/mL (chalcones)", "result": 0, "unit": "%"}
    ]},
    {"compound": "O=C1CC(c2ccccc2)Oc2ccc(Br)cc21", "note": "(stereo not drawn) [Compound 142]", "values": [
      {"measurement": "Activity % Inhibition at 12.5 μg/mL (flavanones)", "result": 8, "unit": "%"}
    ]},
    {"compound": "Nc1cccc(/C=C/C(=O)c2ccccc2O)c1", "note": "[Compound 11]", "values": [
      {"measurement": "Activity % inhibition at 12.5 μg/mL (chalcones)", "result": 11, "unit": "%"}
    ]},
    {"compound": "O=c1cc(-c2ccccc2-c2cccc3c(=O)cc(-c4ccccc4)oc23)oc2ccccc12", "note": "[Compound 161, 8-2′′′-Biflavone]", "values": [
      {"measurement": "Activity % Inhibition at 12.5 μg/mL (biflavonoids)", "result": 0, "unit": "%"}
    ]},
    {"compound": "O=C1c2c(O)cc(O)cc2O[C@H](c2ccc(O)cc2)[C@H]1c1c(O)cc(O)c2c(=O)cc(-c3ccc(O)c(O)c3)oc12", "note": "[Compound 171, Morelloflavone]", "values": [
      {"measurement": "inhibition at 12.5 µg/mL", "result": 0, "unit": "%"}
    ]},
    {"compound": "COc1ccc(/C=C/C(=O)c2c(O)cc(OC)cc2OC)cc1", "note": "[Compound 7]", "values": [
      {"measurement": "Activity % inhibition at 12.5 μg/mL (chalcones)", "result": 40, "unit": "%"},
      {"measurement": "inhibition of the growth of Mtb", "result": 40, "unit": "%"}
    ]}
  ]
}
